Results from ChEMBL document CHEMBL1201862, “PubChem BioAssay data set” (2004).
Calls of active or inactive are those of the source.

Columns and labels:
[1] = molecular target: T1, Heat shock factor protein 1 (Mus musculus, UniProt P38532); test: decrease of HSF1-responsive luciferase luminescence – cell-based, NIH3T3, dose retest, confirmation (AID 2382); type: functional;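 also: NIH3T3 fibroblasts with HSF1-driven luciferase reporter stressed by proteasome inhibitor MG132; luminescence from HSF1-driven luciferase expression after 8 hours of MG132 stress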
T1 sequence (P38532 whole entry): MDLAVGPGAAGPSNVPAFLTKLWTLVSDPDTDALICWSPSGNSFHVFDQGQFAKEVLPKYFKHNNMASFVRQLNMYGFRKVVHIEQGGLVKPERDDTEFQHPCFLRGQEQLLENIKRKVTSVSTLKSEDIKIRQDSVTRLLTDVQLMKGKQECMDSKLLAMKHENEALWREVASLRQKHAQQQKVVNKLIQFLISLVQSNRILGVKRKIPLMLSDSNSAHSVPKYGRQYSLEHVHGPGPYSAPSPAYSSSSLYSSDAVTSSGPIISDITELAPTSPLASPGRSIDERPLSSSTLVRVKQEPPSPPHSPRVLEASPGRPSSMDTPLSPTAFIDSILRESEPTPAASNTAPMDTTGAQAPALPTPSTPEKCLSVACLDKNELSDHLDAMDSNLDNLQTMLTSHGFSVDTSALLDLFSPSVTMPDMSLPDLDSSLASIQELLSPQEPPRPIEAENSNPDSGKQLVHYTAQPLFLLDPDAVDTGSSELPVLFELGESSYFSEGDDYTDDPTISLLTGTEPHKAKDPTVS

[2] = reduction of Shn3 3'UTR-driven luciferase in osteoblasts – cell-based, Clone20 osteoblasts, firefly luciferase, cherry-picked, dose response (AID 624132); type: functional;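 also: firefly luciferase luminescence from reporter carrying the Shn3 3'UTR in osteoblasts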
[3] = non-specific 3'UTR reporter inhibition in Clone20-Shn3RL – cell-based, Renilla luciferase, cherry-picked, counter-screen for Shn3 inhibitor project, dose response (AID 624133); type: functional
[4] = tested on: BJ; test: BJ-TERT fibroblast viability loss – cell-based, RAS-independent, luminescence, dose response (AID 1933); type: functional; details: Homo sapiens
[5] = tested on: BJ; test: cells; type: functional, cell-based; details: Homo sapiens
[6] = tested on: BJ; test: BJ-TERT-LT-ST fibroblast viability loss – cell-based, RAS-independent, luminescence, dose response (AID 1935); type: functional; details: Homo sapiens;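 also: BJ fibroblasts immortalized with TERT plus LT and ST oncogenes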
[7] = DRD fibroblast viability loss – cell-based, non-viral oncogenic, luminescence, dose response (AID 1934); type: functional; details: Homo sapiens
[8] = THP-1 cell cytotoxicity, dose response, cytotoxicity control for non-replicating M. tuberculosis project (AID 489025); type: functional
[9] = cells; type: functional
[10] = Luminescence Cell-Based Dose Retest to Confirm Inhibitors of Cancer Stem Cells. [Related pubchem assays (depositor defined):AID2717, AID2721]; type: functional; details: Homo sapiens
[11] = molecular target: Nonstructural protein 1 (Influenza A virus, UniProt Q194T2); type: functional, Influenza A virus (A/California/07/2009(H1N1))
Nonstructural protein 1, sequence (Q194T2 whole entry): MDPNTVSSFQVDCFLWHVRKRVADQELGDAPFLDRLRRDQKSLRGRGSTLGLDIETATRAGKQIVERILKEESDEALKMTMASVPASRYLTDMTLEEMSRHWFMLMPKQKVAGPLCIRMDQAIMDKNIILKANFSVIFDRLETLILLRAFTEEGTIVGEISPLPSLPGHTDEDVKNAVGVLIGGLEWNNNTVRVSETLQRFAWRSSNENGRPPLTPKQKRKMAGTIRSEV

[12] = viability of uninfected HEp-2 cells – cell-based, HTS, cytotoxicity control for RSV inhibitor project, dose response (AID 2410); type: functional; details: human respiratory syncytial virus
[13] = molecular target: T2, Protein skinhead-1 (Caenorhabditis elegans, UniProt P34707); type: functional
T2 sequence (P34707 whole entry): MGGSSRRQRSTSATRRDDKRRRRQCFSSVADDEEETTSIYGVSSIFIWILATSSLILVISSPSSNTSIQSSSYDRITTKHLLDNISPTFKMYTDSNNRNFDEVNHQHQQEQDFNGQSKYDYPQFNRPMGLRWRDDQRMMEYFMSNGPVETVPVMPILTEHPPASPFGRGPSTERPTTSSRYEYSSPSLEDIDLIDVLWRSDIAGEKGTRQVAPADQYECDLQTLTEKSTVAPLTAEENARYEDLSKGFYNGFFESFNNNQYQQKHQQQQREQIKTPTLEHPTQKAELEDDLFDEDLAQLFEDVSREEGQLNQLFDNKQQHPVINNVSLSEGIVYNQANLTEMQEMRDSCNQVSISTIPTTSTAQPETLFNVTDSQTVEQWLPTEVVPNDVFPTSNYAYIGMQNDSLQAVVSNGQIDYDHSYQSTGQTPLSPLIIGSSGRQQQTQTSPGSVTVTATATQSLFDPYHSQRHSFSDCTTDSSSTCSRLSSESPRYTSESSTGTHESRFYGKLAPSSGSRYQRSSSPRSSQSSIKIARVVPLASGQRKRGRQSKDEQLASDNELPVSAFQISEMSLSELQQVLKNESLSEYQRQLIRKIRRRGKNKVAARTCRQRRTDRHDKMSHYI

[14] = molecular target: Large T antigen (Simian virus 40, UniProt P03070); type: functional, Betapolyomavirus macacae;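 also: Confirmatory-stage PubChem screen for compounds that inhibit SV40 T antigen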
Large T antigen, sequence (P03070 whole entry): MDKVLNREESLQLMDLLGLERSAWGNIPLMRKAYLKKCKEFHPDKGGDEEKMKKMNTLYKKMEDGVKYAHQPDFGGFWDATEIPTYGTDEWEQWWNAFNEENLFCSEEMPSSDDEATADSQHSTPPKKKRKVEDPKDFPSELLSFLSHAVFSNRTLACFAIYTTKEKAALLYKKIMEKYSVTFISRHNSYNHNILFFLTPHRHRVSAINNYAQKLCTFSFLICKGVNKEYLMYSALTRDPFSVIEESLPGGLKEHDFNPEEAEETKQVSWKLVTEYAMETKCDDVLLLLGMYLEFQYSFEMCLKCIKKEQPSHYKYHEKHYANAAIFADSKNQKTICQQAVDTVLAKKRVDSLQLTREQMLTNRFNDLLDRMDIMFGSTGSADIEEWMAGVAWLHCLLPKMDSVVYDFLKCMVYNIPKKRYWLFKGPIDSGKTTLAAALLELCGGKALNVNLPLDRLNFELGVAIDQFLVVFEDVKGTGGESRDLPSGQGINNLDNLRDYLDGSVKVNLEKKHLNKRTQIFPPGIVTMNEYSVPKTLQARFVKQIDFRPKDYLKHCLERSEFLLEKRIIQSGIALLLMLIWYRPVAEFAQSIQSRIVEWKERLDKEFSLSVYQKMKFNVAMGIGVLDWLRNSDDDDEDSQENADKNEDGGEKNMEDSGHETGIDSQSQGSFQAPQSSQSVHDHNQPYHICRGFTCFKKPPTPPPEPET

[15] = molecular target: T3, Leucine aminopeptidase (Plasmodium falciparum 3D7, UniProt Q8IL11); test: P. falciparum M17LAP inhibitors, primary screen, biochemical, fluorogenic H-Leu-NHMec substrate, 1536-well (AID 1619); type: functional
T3 sequence (Q8IL11 whole entry): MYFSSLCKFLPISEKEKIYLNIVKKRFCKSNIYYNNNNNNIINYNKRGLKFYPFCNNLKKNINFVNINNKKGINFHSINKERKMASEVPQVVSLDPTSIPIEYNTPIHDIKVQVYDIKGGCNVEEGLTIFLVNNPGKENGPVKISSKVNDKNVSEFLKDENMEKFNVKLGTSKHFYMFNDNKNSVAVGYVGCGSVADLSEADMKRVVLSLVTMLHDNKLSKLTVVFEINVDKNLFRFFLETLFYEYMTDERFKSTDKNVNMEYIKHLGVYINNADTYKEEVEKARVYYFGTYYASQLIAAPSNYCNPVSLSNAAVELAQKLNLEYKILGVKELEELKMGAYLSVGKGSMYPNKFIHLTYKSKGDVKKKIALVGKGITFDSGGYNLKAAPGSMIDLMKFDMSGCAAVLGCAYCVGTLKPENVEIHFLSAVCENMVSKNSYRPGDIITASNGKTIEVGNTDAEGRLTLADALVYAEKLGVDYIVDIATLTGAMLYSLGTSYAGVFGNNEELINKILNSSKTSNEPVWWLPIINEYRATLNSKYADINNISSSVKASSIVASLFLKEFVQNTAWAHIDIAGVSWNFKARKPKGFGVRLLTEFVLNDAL

[16] = molecular target: T4, Protein RecA (Mycobacterium tuberculosis, UniProt P9WHJ3); test: Fluorescence Cell-Free Homogeneous Dose Retest to Identify Inhibitors of RecA-Intein Splicing Activity. [Related pubchem assays (depositor defined):AID2097, AID2223, AID489010, AID492950]; type: functional
T4 sequence (P9WHJ3 whole entry): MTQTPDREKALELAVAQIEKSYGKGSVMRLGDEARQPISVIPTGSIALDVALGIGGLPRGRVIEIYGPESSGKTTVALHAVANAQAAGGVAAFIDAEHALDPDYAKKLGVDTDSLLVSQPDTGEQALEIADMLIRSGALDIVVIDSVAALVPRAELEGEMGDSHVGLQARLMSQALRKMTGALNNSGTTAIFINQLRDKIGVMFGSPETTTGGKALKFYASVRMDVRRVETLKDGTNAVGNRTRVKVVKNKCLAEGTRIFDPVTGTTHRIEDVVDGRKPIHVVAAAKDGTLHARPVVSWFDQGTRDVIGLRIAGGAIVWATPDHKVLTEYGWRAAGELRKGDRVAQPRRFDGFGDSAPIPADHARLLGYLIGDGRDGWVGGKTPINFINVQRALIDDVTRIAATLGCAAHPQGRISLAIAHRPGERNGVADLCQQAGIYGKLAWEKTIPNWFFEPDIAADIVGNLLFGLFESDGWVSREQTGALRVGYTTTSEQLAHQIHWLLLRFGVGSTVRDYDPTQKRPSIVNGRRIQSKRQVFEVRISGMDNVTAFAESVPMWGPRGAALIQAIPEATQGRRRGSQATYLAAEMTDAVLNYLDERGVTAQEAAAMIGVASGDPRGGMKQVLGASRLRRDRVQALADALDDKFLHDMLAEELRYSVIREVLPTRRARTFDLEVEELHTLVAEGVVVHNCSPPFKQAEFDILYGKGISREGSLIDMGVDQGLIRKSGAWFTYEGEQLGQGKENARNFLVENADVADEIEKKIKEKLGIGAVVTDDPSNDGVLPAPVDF

[17] = molecular target: FAD-linked sulfhydryl oxidase ALR (Homo sapiens, UniProt P55789); test: ALR-catalysed DTT oxidation blockers – biochemical, H2O2 detection, luminescence, cherry-pick, dose response (AID 493248)
FAD-linked sulfhydryl oxidase ALR, sequence (P55789 whole entry): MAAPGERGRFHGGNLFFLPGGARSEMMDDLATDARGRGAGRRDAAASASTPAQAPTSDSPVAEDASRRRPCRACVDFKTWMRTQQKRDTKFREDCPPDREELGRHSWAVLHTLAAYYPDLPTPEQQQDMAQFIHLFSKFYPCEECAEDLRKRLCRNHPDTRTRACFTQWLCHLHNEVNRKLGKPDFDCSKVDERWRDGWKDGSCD

[18] = molecular target: T5, Rac GTPase-activating protein 1 (Homo sapiens, UniProt Q9H0H5); test: blockers of MgcRacGAP-driven Rac1 GTP hydrolysis – biochemical, ADP Hunter fluorescence, primary and confirmatory, confirmation (AID 624330); type: functional
T5 sequence (Q9H0H5 whole entry): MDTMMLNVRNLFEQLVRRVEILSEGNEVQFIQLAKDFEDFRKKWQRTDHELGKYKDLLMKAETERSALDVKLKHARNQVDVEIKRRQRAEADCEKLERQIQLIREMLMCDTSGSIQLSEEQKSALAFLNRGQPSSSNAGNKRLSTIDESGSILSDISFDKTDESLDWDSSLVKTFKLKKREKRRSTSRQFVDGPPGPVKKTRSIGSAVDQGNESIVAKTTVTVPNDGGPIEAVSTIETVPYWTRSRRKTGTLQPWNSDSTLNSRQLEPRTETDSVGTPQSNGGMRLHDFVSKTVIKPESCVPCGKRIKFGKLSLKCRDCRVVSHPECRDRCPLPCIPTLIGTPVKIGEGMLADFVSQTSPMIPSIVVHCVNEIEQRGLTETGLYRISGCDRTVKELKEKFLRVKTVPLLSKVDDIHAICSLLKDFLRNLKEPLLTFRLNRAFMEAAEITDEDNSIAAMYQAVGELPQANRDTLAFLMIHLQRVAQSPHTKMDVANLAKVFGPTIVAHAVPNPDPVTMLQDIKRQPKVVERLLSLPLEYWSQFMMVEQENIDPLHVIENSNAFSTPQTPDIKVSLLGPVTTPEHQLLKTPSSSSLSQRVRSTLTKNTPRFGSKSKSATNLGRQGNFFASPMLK

[19] = Trypanosoma cruzi growth suppression in host cells – NIH3T3 host cells, beta-gal luminescence, confirmation (AID 2044); type: functional, cell-based;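 also: intracellular parasites grown in NIH/3T3 mouse fibroblasts as host cells; luminescent beta-galactosidase reporter signal from transgenic T. cruzi replicating inside host cells; inhibitors lower the luminescence signal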
[20] = NIH3T3 cell viability loss – ATP luminescence, mouse fibroblasts, counter-screen, dose response (AID 2010); type: functional, cell-based;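 also: cells exposed to compound for about 90 hours before reading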

In the case of COc1ccc(N2C(=O)c3ccccc3NC2c2ccc(OC)c(Cn3cc([N+](=O)[O-])cn3)c2)cc1 (centres undefined), the EC50 [1] is reported as > 195 µM (not active).

For Cc1ncc([N+](=O)[O-])n1CC(=O)Nc1ccc(F)cc1, the EC50 [1] was 12.3 µM (active).

In the case of Cc1ccc(C(=O)NCC(=O)NCC(=O)OCC(=O)c2ccc(F)cc2)cc1, the EC50 [1] is reported as > 195 µM (not active).

For CN(C)S(=O)(=O)c1cccc(/N=c2\scc(-c3ccc4c(c3)NC(=O)CO4)n2CC2CCCO2)c1 (centres undefined), the AC50 [2] was 14 µM (active) and the AC50 [3] was 22.5 µM (active).

For O=C(c1ccccc1)c1ccc(-n2ccnc2)c([N+](=O)[O-])c1, the EC50 [4] was > 150 µM (not active), the EC50 [5] was > 150 µM (not active) and the EC50 [6] was > 150 µM (inconclusive). The EC50 [7] was > 150 µM (not active).

In the case of Cc1ccc(NC(=O)COc2ccc(-n3ccnc3)cc2)cc1Cl, the CC50 [8] is reported as > 40 µM (active) and the IC50 [9] is reported as 25.5 µM (active).

For CCCS(=O)(=O)c1c(S(=O)(=O)CCC)c2c(C)cccn2c1C(=O)N/N=C/c1cc(O)cc(O)c1, the EC50 [4] was 23.5 µM (active), the EC50 [5] was 20.2 µM (active) and the EC50 [6] was 18.1 µM (active). For the same compound, the EC50 [7] was 27 µM (active) and the AC50 [10] was 2.52 µM (active).

With Cc1ccc(S(=O)(=O)NC2=C(N3CCN(Cc4ccccc4)CC3)C(=O)c3ccccc3C2=O)cc1 the IC50 [11] was 22.4 µM (active).

In the case of Cc1ccc(OCC(=O)NCCNC(=O)c2ccco2)cc1C, the EC50 [1] is reported as > 195 µM (not active).

With O=C(Nc1nccs1)c1ccc(-c2ccc(Cl)cc2)o1 the CC50 [12] was > 50 µM (active), the CC50 [8] was > 40 µM (active) and the IC50 [9] was 25.6 µM (active). For the same compound, the IC50 [13] was > 100 µM (inactive).

For Cc1cc(C)cc(-n2c(C)cc(C(=S)N3CCOCC3)c2C)c1, the IC50 [11] was 95.6 µM (active).

With COc1ccc(S(=O)(=O)N2CCCCCC2)cc1C(=O)OCC(=O)NC(C)(C)C the EC50 [1] was > 195 µM (not active).

In the case of O=C(Nc1ccc(Nc2ccccc2)cc1)N1CCOCC1, the IC50 [14] is reported as 7.43 µM (active).

For Cc1oc(-c2cc3c(cc2Cl)OCO3)nc1CN1CCCC1c1ccc(F)cc1 (centres undefined), the EC50 [1] was > 195 µM (not active).

For CCOc1ccc(CC(=O)N2CCC3(CC2)NCCc2[nH]cnc23)cc1, the EC50 [1] was > 195 µM (not active).

With CC(C)[C@H](NC(=O)Nc1ccc(Oc2ccccc2)cc1)C(=O)O the IC50 [15] was 15.7 µM (active) and the EC50 [16] was > 380 µM (inactive).

With Cc1cc(-c2ccc(N=Nc3c(S(=O)(=O)O)cc4cc(S(=O)(=O)O)cc(N)c4c3O)c(C)c2)ccc1N=Nc1c(S(=O)(=O)O)cc2cc(S(=O)(=O)O)cc(N)c2c1O the IC50 [14] was 2.38 µM (active).

With CCOc1ccc2c(c1)-c1c(ssc1=S)C(C)(C)N2C the IC50 [11] was 12.8 µM (active).

In the case of Cc1ccc2[nH]c3nc(NN)nnc3c2c1, the IC50 [11] is reported as 13.5 µM (active).

For CC1=CC(C)(C)N2C(=O)C(=O)c3cc(OC(=O)c4ccco4)cc1c32, the EC50 [4] was > 150 µM (not active), the EC50 [5] was 11.6 µM (active) and the EC50 [6] was 11.3 µM (inconclusive). The EC50 [7] was 11.2 µM (inconclusive).

In the case of CCN1C(=O)CC(N2CCC(Nc3ccc(OC)cc3)CC2)C1=O (centres undefined), the IC50 [14] is reported as 57.7 µM (active) and the AC50 [17] is reported as 2.09 µM (active).

In the case of COc1cc2c(cc1N=C(S)Nc1ccccc1C)oc1ccccc12, the IC50 [14] is reported as 56.4 µM (active) and the IC50 [18] is reported as 83.9 µM (active).

In the case of Cc1nc2cc(N=NN(C)C)ccc2[nH]1, the IC50 [14] is reported as > 100 µM (active).

For COc1ccc2[nH]c(C)c(CCN(Cc3cccs3)C(S)=Nc3ccccc3)c2c1, the EC50 [19] was 2.82 µM (active), the EC50 [20] was > 60 µM (not active) and the IC50 [11] was > 100 µM (active).
